Test results: patent US10870638B2, “Pyridazinone compound or its salt, and herbicide containing it” (ISHIHARA SANGYO KAISHA, LTD., priority 2016, dated 2020)

Assays:
Assay in all cases: Test Example 1: foliar treatment, growth inhibition rate on 14th day
Assay type in all cases: in vivo
Details in all cases: active ingredient amount 31 g/ha, 14th day after application, visual, 0 = non-treated, 100 = complete kill
[1] = test system: wild oat (Avena fatua L.)
Procedure, shortened: (§1)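 Sow seeds in upland soil pots; at target leaf stage (wild oat 0.4–1.2, rice 0.2–2.7, foxtail 0.5–3.2, soybean primary leaf) spray formulated compound in water, 1,000 L/ha, 0.1 vol % surfactant. Score inhibition visually at day 14, 0–100%.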

[2] = test system: soybean (Glycine max Merr.)
Procedure, shortened: as §1

[3] = test system: crabgrass (Digitaria sanquinalis L.)
Procedure, shortened: (§2)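 Using a small sprayer, formulated compound in water (0.1 vol % surfactant, 1,000 L/ha) was applied to seedlings grown from seed in upland soil. Fourteen days on, growth state was observed and expressed as percent inhibition from 0 to 100.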

corn (Zea mays L.) = test system: corn (Zea mays L.)
Procedure, shortened: as §2

[4] = test system: wheat (Triticum aestivum L.)
Procedure, shortened: as §2

[5] = test system: barnyardgrass (Echinochloa crus-qalli L.)
Procedure, shortened: as §2

[6] = test system: italian ryegrass (Lolium multiflorum Lam.)
Procedure, shortened: as §2

[7] = test system: redroot pigweed (Amaranthus retroflexus L.)
Procedure, shortened: as §2

[8] = test system: green foxtail (Setaria viridis L.)
Procedure, shortened: as §1

rice (Oryza sativa L.) = test system: rice (Oryza sativa L.)
Procedure, shortened: as §1

Structure (SMILES)	Growth inhibition rate (%) Wild oat [1]	Growth inhibition rate (%) Soybean [2]	Growth inhibition rate (%) Crabgrass [3]	Growth inhibition rate (%) Corn (corn (Zea mays L.))	Growth inhibition rate (%) Wheat [4]	Growth inhibition rate (%) Barnyardgrass [5]	Growth inhibition rate (%) Italian ryegrass [6]	Growth inhibition rate (%) Redroot pigweed [7]	Growth inhibition rate (%) Green foxtail [8]	Growth inhibition rate (%) Rice (rice (Oryza sativa L.))
Cc1ccc(Oc2cnc3cc(Cl)ccc3n2)cc1-c1c(OC(=O)OC(C)C)c(C)nn(C)c1=O [Compound 3-60]	98%	10%	95%	20%	93%	99%	95%	0%	100%	10%
Cc1ccc(Oc2cnc3cc(Cl)ccc3n2)cc1-c1c(OC(=O)OC2CC(C)CCC2C(C)C)c(C)nn(C)c1=O (centres unmarked) [Compound 3-61]	0%	0%	20%	20%	0%	0%	0%	0%	60%	0%
Cc1ccc(Oc2cnc3cc(Cl)ccc3n2)cc1-c1c(OC(=S)Oc2ccccc2)c(C)nn(C)c1=O [Compound 3-62]	99%	20%	99%	60%	90%	100%	93%	0%	99%	0%
Cc1ccc(Oc2cnc3cc(Cl)ccc3n2)cc1-c1c(OC(=S)Sc2ccccc2)c(C)nn(C)c1=O [Compound 3-63]	98%	0%	98%	40%	83%	100%	90%	0%	100%	0%
Cc1ccc(Oc2cnc3cc(Cl)ccc3n2)cc1-c1c(OC(=O)N(C)C)c(C)nn(C)c1=O [Compound 3-65]	75%	10%	83%	40%	98%	100%	85%	0%	99%	0%
Cc1ccc(Oc2cnc3cc(Cl)ccc3n2)cc1-c1c(OC(=O)N(C)c2ccccc2)c(C)nn(C)c1=O [Compound 3-66]	50%	0%	20%	25%	10%	10%	40%	0%	35%	0%
Cc1ccc(Oc2cnc3cc(Cl)ccc3n2)cc1-c1c(OC(=S)N(C)C)c(C)nn(C)c1=O [Compound 3-67]	100%	0%	95%	50%	99%	100%	99%	0%	100%	40%
CCS(=O)(=O)Oc1c(C)nn(C)c(=O)c1-c1cc(Oc2cnc3cc(Cl)ccc3n2)ccc1C [Compound 3-68]	90%	0%	95%	20%	30%	100%	83%	0%	100%	0%
Cc1ccc(Oc2cnc3cc(Cl)ccc3n2)cc1-c1c(OS(=O)(=O)C2CC2)c(C)nn(C)c1=O [Compound 3-70]	60%	10%	88%	30%	0%	98%	40%	0%	98%	0%
Cc1ccc(S(=O)(=O)Oc2c(C)nn(C)c(=O)c2-c2cc(Oc3cnc4cc(Cl)ccc4n3)ccc2C)cc1 [Compound 3-71]	99%	0%	90%	0%	95%	100%	98%	0%	100%	15%
C=CCOc1c(C)nn(C)c(=O)c1-c1cc(Oc2cnc3cc(Cl)ccc3n2)ccc1C [Compound 3-74]	25%	0%	20%	20%	0%	93%	0%	0%	95%	0%
COCCOCOc1c(C)nn(C)c(=O)c1-c1cc(Oc2cnc3cc(Cl)ccc3n2)ccc1C [Compound 3-75]	98%	0%	95%	10%	95%	99%	98%	0%	99%	0%
Cc1ccc(Oc2cnc3cc(Cl)ccc3n2)cc1-c1c(OC(C)OC(=O)OC2CCCCC2)c(C)nn(C)c1=O (centres unmarked) [Compound 3-76]	0%	0%	30%	0%	0%	93%	10%	0%	93%	0%
C#CCOc1c(C)nn(C)c(=O)c1-c1cc(Oc2cnc3cc(Cl)ccc3n2)ccc1C [Compound 3-77]	60%	0%	90%	30%	25%	100%	85%	0%	100%	0%
